This is an account of results in US20220324835A1 (Nurix Therapeutics, Inc., priority 2018, published 2022).

Holding throughout (type): cell-based, human
The test system of experiment [1] is T-cell. Briefly: IL-2 secretion from T-cells co-stimulated with anti-CD3 and anti-CD28 antibody (Biological Example 2). As to conditions: Homo sapiens, T-cell, fold change over baseline, primary human total T-cells, read-out: IL-2 secretion Anti-CD3/Anti-CD28 stimulation; for fold induction at 0.3 µM: 0.3 μM Cbl-b inhibitor; for fold induction at 1 µM: 1 μM Cbl-b inhibitor; for fold induction at 4 µM: 4 μM Cbl-b inhibitor. The procedure, abridged:
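Values are fold-change over baseline: readings (IL-2 release, CD25 staining) from inhibitor-treated T-cells divided against untreated cells […]. No detailed procedure stated.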

The subject of experiment [2] is T-cell. Briefly: IL-2 secretion from T-cells stimulated with anti-CD3 antibody alone (Biological Example 2). As to conditions: T-cell, fold change over baseline, primary human total T-cells, read-out: IL-2 secretion Anti-CD3 stimulation; for fold induction at 1 µM: 1 μM Cbl-b inhibitor; for fold induction at 8 µM: 8 μM Cbl-b inhibitor.
For experiment [3], the system named is T-cell. Briefly: CD25 cell surface staining on T-cells stimulated with anti-CD3 antibody alone (Biological Example 2). As to conditions: T-cell, fold change over baseline, primary human total T-cells, read-out: CD25 staining Anti-CD3 stimulation; for fold induction at 1 µM: 1 μM Cbl-b inhibitor; for fold induction at 8 µM: 8 μM Cbl-b inhibitor.

Where only a bound is given, the exact number is not on record here.

Take `C[C@H](Cc1nncn1C)c1cccc(NC(=O)c2cc(C(=O)N3C[C@@H](O)[C@H](F)C3)ccn2)c1` [Compound 240, 4-((3R,4R)-3-fluoro-4-hydroxypyrrolidine-1-carbonyl)-N-(3-((K)-1-(4-methyl-4H-1,2,4-triazol-3-yl)propan-2-yl)phenyl)picolinamide]: in the experiment with T-cell [1], the fold induction at 0.3 µM was less than 1, the fold induction at 1 µM was in the range of 1.01 to 2.5 and the fold induction at 4 µM fell in the range of 2.51 to 5. In the experiment on T-cell [2], the fold induction at 1 µM lay within 0.151 to 0.2 and the fold induction at 8 µM is greater than 0.201. For the same compound, in the experiment on T-cell [3], the fold induction at 1 µM lay in the range of 0.601 to 0.8 and the fold induction at 8 µM lay within 0.801 to 1.
`C[C@H](Cc1nncn1C)c1cccc(NC(=O)c2cc(C(=O)N3CC(O)C(F)(F)C3)ccn2)c1` (stereo partly drawn) [Compound 243, 4-(3,3-difluoro-4-hydroxypyrrolidine-1-carbonyl)-N-[3-[(2R)-1-(4-methyl-4H-1,2,4-triazol-3-yl)propan-2-yl]phenyl]pyridine-2-carboxamide]: in the experiment with T-cell [1], the fold induction at 0.3 µM was less than 1, the fold induction at 1 µM was less than 1 and the fold induction at 4 µM lay within 2.51 to 5. In the experiment on T-cell [2], the fold induction at 1 µM is greater than 0.201 and the fold induction at 8 µM was greater than 0.201. Also, in the experiment on T-cell [3], the fold induction at 1 µM lay within 0.601 to 0.8 and the fold induction at 8 µM was in the range of 0.801 to 1.
Consider `CCn1cnnc1C[C@@H](C)c1cccc(NC(=O)c2cc(C(=O)N3C[C@@H](O)C[C@H]3C)ccn2)c1` [Compound 251, N-(3-((R)-1-(4-ethyl-4H-1,2,4-triazol-3-yl)propan-2-yl)phenyl)-4-((2R,4S)-4-hydroxy-2-methylpyrrolidine-1-carbonyl)picolinamide], for which, in the experiment with T-cell [1], the fold induction at 0.3 µM was less than 1, the fold induction at 1 µM was less than 1 and the fold induction at 4 µM lay in the range of 1.01 to 2.5. In the experiment on T-cell [2], the fold induction at 1 µM fell in the range of 0.151 to 0.2 and the fold induction at 8 µM lay in the range of 0.151 to 0.2. Further, in the experiment on T-cell [3], the fold induction at 1 µM fell in the range of 0.601 to 0.8 and the fold induction at 8 µM is 0.601 to 0.8.
Take `C[C@H](Cc1nncn1C)c1cccc(N2Cc3c(Br)cccc3C2=O)c1` [Compound 256, (R)-4-bromo-2-(3-(1-(4-methyl-4H-1,2,4-triazol-3-yl)propan-2-yl)phenyl)isoindolin-1-one]: in the experiment with T-cell [1], the fold induction at 0.3 µM lay within 2.51 to 5, the fold induction at 1 µM was in the range of 5 to 7.5 and the fold induction at 4 µM was greater than 7.5. Further, in the experiment with T-cell [2], the fold induction at 1 µM is greater than 0.201 and the fold induction at 8 µM is greater than 0.201. In the experiment with T-cell [3], the fold induction at 1 µM was in the range of 0.801 to 1 and the fold induction at 8 µM lay in the range of 0.801 to 1.
`C[C@H](Cc1nncn1C)c1cccc(N2Cc3c(ccnc3C3CCC3)C2=O)c1` [Compound 258, (R)-4-cyclobutyl-2-(3-(1-(4-methyl-4H-1,2,4-triazol-3-yl)propan-2-yl)phenyl)-2,3-dihydropyrrolo[3,4-c]pyridin-1-one]: in the experiment on T-cell [1], the fold induction at 0.3 µM is 1.01 to 2.5, the fold induction at 1 µM lay in the range of 2.51 to 5 and the fold induction at 4 µM is 5 to 7.5. Further, in the experiment on T-cell [2], the fold induction at 1 µM lay in the range of 0.051 to 0.1 and the fold induction at 8 µM lay within 0.101 to 0.15. Besides, in the experiment with T-cell [3], the fold induction at 1 µM was greater than 1 and the fold induction at 8 µM is greater than 1.
Turning to `C[C@H](Cc1nnc[nH]1)c1cccc(N2Cc3c(cccc3C(F)(F)F)C2=O)c1` [Compound 262, (R)-2-(3-(1-(4H-1,2,4-triazol-3-yl)propan-2-yl)phenyl)-4-(trifluoromethyl)isoindolin-1-one], in the experiment on T-cell [1], the fold induction at 0.3 µM was less than 1, the fold induction at 1 µM was less than 1 and the fold induction at 4 µM was in the range of 1.01 to 2.5. Also, in the experiment on T-cell [2], the fold induction at 1 µM is less than 0.05 and the fold induction at 8 µM was less than 0.05. In the experiment on T-cell [3], the fold induction at 1 µM is less than 0.6 and the fold induction at 8 µM is less than 0.6.
In the case of `C[C@H](Cc1nncn1C1CC1)c1cccc(N2Cc3c(cccc3C(F)(F)F)C2=O)c1` [Compound 265, (R)-2-(3-(1-(4-cyclopropyl-4H-1,2,4-triazol-3-yl)propan-2-yl)phenyl)-4-(trifluoromethyl)isoindolin-1-one], in the experiment with T-cell [1], the fold induction at 0.3 µM was less than 1, the fold induction at 1 µM fell in the range of 1.01 to 2.5 and the fold induction at 4 µM lay in the range of 1.01 to 2.5. In the experiment on T-cell [2], the fold induction at 1 µM was less than 0.05 and the fold induction at 8 µM was less than 0.05. Further, in the experiment on T-cell [3], the fold induction at 1 µM fell in the range of 0.601 to 0.8 and the fold induction at 8 µM is 0.801 to 1.
In the case of `Cc1[nH]cnc1CC(C)c1cccc(N2Cc3c(cccc3C(F)(F)F)C2=O)c1` (stereo not drawn) [Compound 272, 2-[3-[1-(5-methyl-1H-imidazol-4-yl)propan-2-yl]phenyl]-4-(trifluoromethyl)isoindolin-1-one], in the experiment on T-cell [1], the fold induction at 0.3 µM was less than 1, the fold induction at 1 µM is less than 1 and the fold induction at 4 µM was less than 1. In addition, in the experiment on T-cell [2], the fold induction at 1 µM lay in the range of 0.101 to 0.15 and the fold induction at 8 µM lay within 0.101 to 0.15. In the experiment on T-cell [3], the fold induction at 1 µM was less than 0.6 and the fold induction at 8 µM was less than 0.6.
As for `C[C@H](Cc1nncn1C)c1cc(F)cc(N2Cc3c(cccc3C(F)(F)F)C2=O)c1` [Compound 281a, 2-[3-Fluoro-5-[(1R)-1-methyl-2-(4-methyl-1,2,4-triazol-3-yl)ethyl]phenyl]-4-(trifluoromethyl)isoindolin-1-one], in the experiment with T-cell [1], the fold induction at 0.3 µM was in the range of 1.01 to 2.5, the fold induction at 1 µM was 1.01 to 2.5 and the fold induction at 4 µM was 2.51 to 5. Moreover, in the experiment with T-cell [2], the fold induction at 1 µM is less than 0.05 and the fold induction at 8 µM was in the range of 0.051 to 0.1. In addition, in the experiment with T-cell [3], the fold induction at 1 µM lay in the range of 0.801 to 1 and the fold induction at 8 µM was greater than 1.
In the case of `Cn1cnnc1[C@@H]1CC[C@@H]1c1cccc(N2Cc3c(cccc3C(F)(F)F)C2=O)c1` [Compound 283b, 2-(3-((1S,2R)-2-(4-methyl-4H-1,2,4-triazol-3-yl)cyclobutyl)phenyl)-4-(trifluoromethyl)isoindolin-1-one], in the experiment with T-cell [1], the fold induction at 0.3 µM was 5 to 7.5, the fold induction at 1 µM is greater than 7.5 and the fold induction at 4 µM was greater than 7.5. Further, in the experiment on T-cell [2], the fold induction at 1 µM lay in the range of 0.101 to 0.15 and the fold induction at 8 µM is greater than 0.201. For the same compound, in the experiment on T-cell [3], the fold induction at 1 µM fell in the range of 0.601 to 0.8 and the fold induction at 8 µM fell in the range of 0.801 to 1.
For `Cc1ccc(C(=O)Nc2cccc(C(C)C(F)(F)c3nncn3C)c2)nc1C1CC1` (stereo not drawn) [Compound 286, 6-cyclopropyl-N-(3-(1,1-difluoro-1-(4-methyl-4H-1,2,4-triazol-3-yl)propan-2-yl)phenyl)-5-methylpicolinamide], in the experiment with T-cell [1], the fold induction at 0.3 µM is 1.01 to 2.5, the fold induction at 1 µM lay within 1.01 to 2.5 and the fold induction at 4 µM lay within 2.51 to 5. In the experiment with T-cell [2], the fold induction at 1 µM was in the range of 0.051 to 0.1 and the fold induction at 8 µM was 0.101 to 0.15. Also, in the experiment on T-cell [3], the fold induction at 1 µM lay in the range of 0.801 to 1 and the fold induction at 8 µM was greater than 1.
As to `Cn1cnnc1C[C@](C)(F)c1cccc(N2Cc3c(cccc3C(F)(F)F)C2=O)c1` [Compound 298b, (S)-2-(3-(2-fluoro-1-(4-methyl-4H-1,2,4-triazol-3-yl)propan-2-yl)phenyl)-4-(trifluoromethyl)isoindolin-1-one], in the experiment with T-cell [1], the fold induction at 0.3 µM lay in the range of 1.01 to 2.5, the fold induction at 1 µM lay in the range of 1.01 to 2.5 and the fold induction at 4 µM lay within 1.01 to 2.5. Also, in the experiment with T-cell [2], the fold induction at 1 µM fell in the range of 0.051 to 0.1 and the fold induction at 8 µM fell in the range of 0.101 to 0.15. Also, in the experiment with T-cell [3], the fold induction at 1 µM is 0.601 to 0.8 and the fold induction at 8 µM lay within 0.801 to 1.
